Columns and labels:
[1] = compound: O=[As]([O-])(O)O.[K+] [potassium arsenate]; assay: thermal stability z-score vs DMSO; higher = more thermally stabilized by treatment; conditions: HeLa; arsenate concentration 1 mM
Description: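 Cellular thermal proteome profiling in HeLa cells treated with 1 mM arsenate for 1 h (DMSO pretreatment), heated to ten temperatures (37-66.3 °C). Soluble protein was quantified by TMT mass spectrometry relative to DMSO controls; the thermal stability score was transformed to a z-score; mean of n = 3 experiments.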

[2] = compound: NC(=O)CCCCC1CCSS1 [lipoamide]; assay: as above; conditions: HeLa, lipoamide concentration 100 µM
Description: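 Cellular thermal proteome profiling in HeLa cells. Cells were treated with 100 µM lipoamide for 1 h, with or without 1 mM arsenate for a further 1 h, then heated to ten temperatures (37-66.3 °C), and soluble protein was quantified by TMT mass spectrometry relative to 0.1% DMSO controls. The thermal stability score (sum of log2 fold changes minus the abundance score) was transformed to a z-score; mean of n = 3 experiments.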

[3] = arsenate co-treatment: 1 mM arsenate 1 h
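Note: each temperature applied for 3 min, abundance score taken as mean log2 fold change at the two lowest temperatures, z-score obtained by mean subtraction and division by SD.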

Chain of UniProt Q8IWT0 (Q8IWT0 whole entry): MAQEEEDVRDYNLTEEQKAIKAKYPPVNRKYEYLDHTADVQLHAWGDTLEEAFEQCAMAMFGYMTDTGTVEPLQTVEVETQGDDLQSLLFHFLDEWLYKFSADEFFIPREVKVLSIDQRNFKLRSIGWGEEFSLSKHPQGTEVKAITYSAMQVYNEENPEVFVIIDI
Chain of UniProt O95563 (O95563 whole entry): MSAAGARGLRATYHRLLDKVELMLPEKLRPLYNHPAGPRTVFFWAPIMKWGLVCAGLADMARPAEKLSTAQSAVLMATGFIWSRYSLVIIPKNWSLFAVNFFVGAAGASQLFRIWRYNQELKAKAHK
Chain of UniProt Q15057 (Q15057 whole entry): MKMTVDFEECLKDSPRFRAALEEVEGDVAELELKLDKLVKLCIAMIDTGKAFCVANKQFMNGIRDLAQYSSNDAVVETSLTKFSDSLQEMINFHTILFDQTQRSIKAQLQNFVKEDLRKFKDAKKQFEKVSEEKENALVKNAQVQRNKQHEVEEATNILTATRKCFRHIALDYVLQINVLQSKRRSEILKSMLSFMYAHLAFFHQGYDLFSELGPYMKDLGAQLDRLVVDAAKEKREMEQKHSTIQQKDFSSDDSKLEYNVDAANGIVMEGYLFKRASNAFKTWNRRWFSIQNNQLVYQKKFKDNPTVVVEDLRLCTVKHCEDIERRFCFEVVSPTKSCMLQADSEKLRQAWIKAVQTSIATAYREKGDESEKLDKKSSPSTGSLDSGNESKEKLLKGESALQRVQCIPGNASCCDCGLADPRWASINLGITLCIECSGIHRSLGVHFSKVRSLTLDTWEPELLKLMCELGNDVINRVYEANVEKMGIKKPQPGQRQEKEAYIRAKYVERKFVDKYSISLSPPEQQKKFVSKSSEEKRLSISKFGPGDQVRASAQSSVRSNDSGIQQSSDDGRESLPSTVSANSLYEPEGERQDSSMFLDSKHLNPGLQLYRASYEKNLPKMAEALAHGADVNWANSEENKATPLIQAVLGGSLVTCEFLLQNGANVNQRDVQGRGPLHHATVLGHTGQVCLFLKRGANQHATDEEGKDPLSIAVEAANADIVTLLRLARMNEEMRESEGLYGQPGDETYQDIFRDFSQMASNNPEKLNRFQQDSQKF
Chain of UniProt Q96AG4 (Q96AG4 whole entry): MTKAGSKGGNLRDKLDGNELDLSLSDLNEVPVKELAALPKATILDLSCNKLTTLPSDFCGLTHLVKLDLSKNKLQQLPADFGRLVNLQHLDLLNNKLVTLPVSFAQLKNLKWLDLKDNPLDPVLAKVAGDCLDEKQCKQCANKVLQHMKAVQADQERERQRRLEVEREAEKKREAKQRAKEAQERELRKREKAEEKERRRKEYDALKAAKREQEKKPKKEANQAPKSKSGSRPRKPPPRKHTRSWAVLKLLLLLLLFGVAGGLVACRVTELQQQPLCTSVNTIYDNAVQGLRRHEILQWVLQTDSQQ
Chain of UniProt P20936 (P20936 whole entry): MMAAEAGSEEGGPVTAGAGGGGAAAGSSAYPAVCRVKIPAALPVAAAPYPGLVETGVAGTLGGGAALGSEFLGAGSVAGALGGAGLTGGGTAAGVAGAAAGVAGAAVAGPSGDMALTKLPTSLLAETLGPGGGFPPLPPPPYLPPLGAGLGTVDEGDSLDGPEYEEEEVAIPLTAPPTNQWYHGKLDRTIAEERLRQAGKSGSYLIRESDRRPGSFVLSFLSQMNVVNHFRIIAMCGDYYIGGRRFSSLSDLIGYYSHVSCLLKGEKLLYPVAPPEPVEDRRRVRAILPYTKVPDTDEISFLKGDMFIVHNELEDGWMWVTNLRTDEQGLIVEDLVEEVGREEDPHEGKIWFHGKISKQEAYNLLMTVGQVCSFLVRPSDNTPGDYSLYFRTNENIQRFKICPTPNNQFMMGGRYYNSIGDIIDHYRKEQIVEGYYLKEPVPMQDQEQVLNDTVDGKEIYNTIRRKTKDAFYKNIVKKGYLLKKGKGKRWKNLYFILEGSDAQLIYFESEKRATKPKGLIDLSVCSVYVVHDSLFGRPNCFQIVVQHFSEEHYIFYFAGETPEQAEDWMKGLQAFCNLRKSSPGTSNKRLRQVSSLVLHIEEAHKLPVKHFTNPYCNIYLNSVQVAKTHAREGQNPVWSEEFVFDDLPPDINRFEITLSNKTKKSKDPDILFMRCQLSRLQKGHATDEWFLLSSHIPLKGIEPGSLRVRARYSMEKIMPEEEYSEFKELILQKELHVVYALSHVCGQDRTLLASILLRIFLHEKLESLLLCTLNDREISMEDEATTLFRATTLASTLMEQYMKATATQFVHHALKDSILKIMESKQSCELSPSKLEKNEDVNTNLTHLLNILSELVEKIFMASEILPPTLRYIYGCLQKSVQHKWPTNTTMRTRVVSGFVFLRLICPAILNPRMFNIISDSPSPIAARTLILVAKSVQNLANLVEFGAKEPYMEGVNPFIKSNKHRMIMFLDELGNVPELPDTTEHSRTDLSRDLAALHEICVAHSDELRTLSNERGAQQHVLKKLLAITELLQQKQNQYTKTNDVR
Chain of UniProt P51617 (P51617 whole entry, looked up): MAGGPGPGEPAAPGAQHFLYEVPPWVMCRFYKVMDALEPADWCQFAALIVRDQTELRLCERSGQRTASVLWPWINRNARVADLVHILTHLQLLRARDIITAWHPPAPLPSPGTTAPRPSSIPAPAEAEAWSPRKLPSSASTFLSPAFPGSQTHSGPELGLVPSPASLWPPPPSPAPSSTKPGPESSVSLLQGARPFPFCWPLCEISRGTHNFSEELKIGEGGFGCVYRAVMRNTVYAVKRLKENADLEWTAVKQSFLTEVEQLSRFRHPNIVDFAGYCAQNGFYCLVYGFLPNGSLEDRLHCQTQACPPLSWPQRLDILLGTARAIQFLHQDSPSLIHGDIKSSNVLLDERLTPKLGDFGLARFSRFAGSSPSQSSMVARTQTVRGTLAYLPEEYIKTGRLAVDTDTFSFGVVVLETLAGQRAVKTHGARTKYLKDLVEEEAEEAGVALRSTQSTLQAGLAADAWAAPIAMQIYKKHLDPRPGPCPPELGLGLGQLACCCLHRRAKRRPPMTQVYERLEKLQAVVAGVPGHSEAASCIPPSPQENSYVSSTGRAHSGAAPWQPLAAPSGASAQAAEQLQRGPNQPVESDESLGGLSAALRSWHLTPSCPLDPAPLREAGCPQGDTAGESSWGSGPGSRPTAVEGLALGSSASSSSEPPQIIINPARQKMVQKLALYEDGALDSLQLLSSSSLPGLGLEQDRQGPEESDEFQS
Chain of UniProt Q9ULF5 (Q9ULF5 whole entry): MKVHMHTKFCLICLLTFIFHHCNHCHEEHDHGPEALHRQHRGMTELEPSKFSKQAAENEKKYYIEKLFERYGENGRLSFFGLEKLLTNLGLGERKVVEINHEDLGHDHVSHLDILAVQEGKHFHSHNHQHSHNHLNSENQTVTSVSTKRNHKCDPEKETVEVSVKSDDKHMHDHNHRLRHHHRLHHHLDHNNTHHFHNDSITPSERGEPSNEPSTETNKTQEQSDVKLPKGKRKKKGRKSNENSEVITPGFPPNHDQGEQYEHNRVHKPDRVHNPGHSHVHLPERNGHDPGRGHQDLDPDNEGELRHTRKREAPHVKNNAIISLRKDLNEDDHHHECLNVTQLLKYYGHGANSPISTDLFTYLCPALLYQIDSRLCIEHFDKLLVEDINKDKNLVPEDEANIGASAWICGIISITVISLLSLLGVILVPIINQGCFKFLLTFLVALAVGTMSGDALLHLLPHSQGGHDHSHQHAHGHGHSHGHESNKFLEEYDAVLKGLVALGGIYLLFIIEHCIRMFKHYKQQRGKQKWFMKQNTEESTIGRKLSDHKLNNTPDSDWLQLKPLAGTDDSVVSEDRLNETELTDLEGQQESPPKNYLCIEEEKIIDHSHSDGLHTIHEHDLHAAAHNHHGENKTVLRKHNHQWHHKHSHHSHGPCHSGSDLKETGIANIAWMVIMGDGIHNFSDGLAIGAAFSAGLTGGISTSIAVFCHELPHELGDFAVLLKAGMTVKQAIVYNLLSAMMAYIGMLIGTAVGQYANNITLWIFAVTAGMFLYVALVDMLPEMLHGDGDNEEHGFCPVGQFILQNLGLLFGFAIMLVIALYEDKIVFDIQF
Chain of UniProt P41091 (P41091 whole entry): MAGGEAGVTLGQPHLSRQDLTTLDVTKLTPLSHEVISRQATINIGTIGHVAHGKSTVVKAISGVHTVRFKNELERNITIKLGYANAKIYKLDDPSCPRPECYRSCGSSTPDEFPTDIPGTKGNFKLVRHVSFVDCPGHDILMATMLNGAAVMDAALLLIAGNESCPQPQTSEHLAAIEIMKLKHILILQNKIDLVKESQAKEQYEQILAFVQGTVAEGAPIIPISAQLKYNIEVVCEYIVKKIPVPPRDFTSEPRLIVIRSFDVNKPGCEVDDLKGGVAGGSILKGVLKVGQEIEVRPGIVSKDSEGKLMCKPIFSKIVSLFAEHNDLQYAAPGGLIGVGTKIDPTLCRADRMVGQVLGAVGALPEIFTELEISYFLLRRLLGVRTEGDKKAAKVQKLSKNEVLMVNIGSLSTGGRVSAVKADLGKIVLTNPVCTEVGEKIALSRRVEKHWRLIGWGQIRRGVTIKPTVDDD
Chain of UniProt O75348 (O75348 whole entry): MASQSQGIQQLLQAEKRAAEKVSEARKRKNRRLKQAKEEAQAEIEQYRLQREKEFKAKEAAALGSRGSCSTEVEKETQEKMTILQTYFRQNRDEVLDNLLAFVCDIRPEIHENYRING
Chain of UniProt Q96BN8 (Q96BN8 whole entry): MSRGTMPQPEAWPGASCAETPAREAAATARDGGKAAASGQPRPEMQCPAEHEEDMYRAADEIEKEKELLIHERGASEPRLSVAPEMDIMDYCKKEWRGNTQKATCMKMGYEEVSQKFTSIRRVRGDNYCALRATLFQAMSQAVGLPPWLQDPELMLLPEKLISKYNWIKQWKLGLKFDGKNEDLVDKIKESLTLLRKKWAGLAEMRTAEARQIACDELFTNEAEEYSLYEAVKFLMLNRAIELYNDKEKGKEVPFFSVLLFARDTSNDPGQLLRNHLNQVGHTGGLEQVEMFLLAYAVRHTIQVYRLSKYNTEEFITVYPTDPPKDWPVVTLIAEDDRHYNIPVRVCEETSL

Target	thermal stability z-score [1]	thermal stability z-score [2, 3]	thermal stability z-score ([2]; arsenate co-treatment: none)
COL4A2 (UniProt P08572)	0.138	-1.15	-0.802
EXOSC2 (UniProt Q13868)	-0.593	0.567	0.234
IRAK1 (UniProt P51617)	-0.328	-0.153	-0.074
FAM65A (UniProt Q6ZS17)	-0.0314	0.215	0.0539
TRAFD1 (UniProt O14545)	-2.25	-1.34	-0.816
HNRNPL (UniProt P14866)	-2.57	0.204	0.05
PSEN1 (UniProt P49768)	-2.52	1.23	-2
EMC2 (UniProt Q15006)	0.472	-0.278	-0.164
PTTG1IP (UniProt P53801)	-0.2	-0.059	-0.0338
TLK1 (UniProt Q9UKI8)	0.956	0.193	-0.983
NFIB (UniProt O00712)	-0.0229	-1.17	-0.437
PNPLA4 (UniProt P41247)	1.28	0.634	0.101
DST (UniProt Q03001)	-0.103	0.0624	-0.113
NRDC (UniProt O43847)	0.364	-0.0123	-0.0343
SHC1 (UniProt P29353)	0.126	-0.383	0.739
OTULIN (UniProt Q96BN8)	-0.452	-0.269	-0.186
HNRNPAB (UniProt Q99729)	-0.447	0.89	0.554
ADAM10 (UniProt O14672)	-0.0434	-1.72	-1.52
LSM12 (UniProt Q3MHD2)	-0.27	-0.205	0.447
BRAF (UniProt P15056)	0.328	-0.207	0.176
RASA1 (UniProt P20936)	1.15	0.447	0.753
PIK3R2 (UniProt O00459)	-0.17	-0.263	0.416
ZBTB8OS (UniProt Q8IWT0)	-1.01	-0.245	0.591
UBR1 (UniProt Q8IWV7)	-0.191	-0.198	0.193

Target	thermal stability z-score [1]	thermal stability z-score [2, 3]	thermal stability z-score ([2]; arsenate co-treatment: none)
LAMTOR2 (UniProt Q9Y2Q5)	0.135	0.266	0.19
SEMA3B (UniProt Q13214)	0.997	-1.02	-1.61
MAD1L1 (UniProt Q9Y6D9)	1.62	2.13	0.887
IGBP1 (UniProt P78318)	-0.613	0.172	0.441
PIR (UniProt O00625)	-1.25	3.16	2.76
RASSF8 (UniProt Q8NHQ8)	-0.0803	-0.0675	-0.05
EIF2S3 (UniProt P41091)	1.34	0.159	-0.567
SCAF4 (UniProt O95104)	0.0697	0.0769	0.184
FGFR1OP (UniProt O95684)	1.33	0.163	-0.0584
UXS1 (UniProt Q8NBZ7)	0.198	0.238	0.551
SH3BGRL3 (UniProt Q9H299)	0.000903	-0.0209	-0.395
ETNK1 (UniProt Q9HBU6)	0.244	0.392	1.06
BRD7 (UniProt Q9NPI1)	-0.517	-0.355	-0.169
PDHA1 (UniProt P08559)	-2.51	0.0392	0.295
RBSN (UniProt Q9H1K0)	-0.113	0.0643	0.16
OXSM (UniProt Q9NWU1)	0.51	-0.024	0.0818
TOP3A (UniProt Q13472)	-0.457	-0.152	0.21
PI4K2B (UniProt Q8TCG2)	-0.451	-0.541	0.209
SLC39A10 (UniProt Q9ULF5)	0.177	0.0305	-0.329
OSGEP (UniProt Q9NPF4)	-0.208	-0.0754	0.487
RPS6KB2 (UniProt Q9UBS0)	-0.0668	0.0955	0.0989
PPT1 (UniProt P50897)	-0.00594	-0.494	-0.324
ACAP2 (UniProt Q15057)	-0.178	-0.177	0.0236
ARPC5 (UniProt O15511)	-0.246	0.9	0.484

Target	thermal stability z-score [1]	thermal stability z-score [2, 3]	thermal stability z-score ([2]; arsenate co-treatment: none)
CD99 (UniProt P14209)	0.168	0.901	0.721
HSF1 (UniProt Q00613)	-0.185	-0.332	-0.199
MRPL13 (UniProt Q9BYD1)	-0.201	-0.175	-0.451
ATG101 (UniProt Q9BSB4)	0.678	-0.67	-1.42
WDFY2 (UniProt Q96P53)	-0.0121	-0.402	-0.11
SYVN1 (UniProt Q86TM6)	-0.421	-2	-2.05
MPC2 (UniProt O95563)	1.64	0.0545	-0.501
SF3B1 (UniProt O75533)	-0.873	2.46	0.661
VDAC1 (UniProt P21796)	0.905	0.311	0.385
MYH14 (UniProt Q7Z406)	0.458	0.363	0.126
RPUSD4 (UniProt Q96CM3)	-0.998	-0.196	-1.67
LRRC59 (UniProt Q96AG4)	-1.86	-0.768	-0.195
B4GALT5 (UniProt O43286)	-0.0207	-0.000852	-0.338
HAGH (UniProt Q16775)	0.158	0.41	-0.0853
XPR1 (UniProt Q9UBH6)	0.209	-0.458	-0.47
ACP2 (UniProt P11117)	0.375	-0.226	-0.57
ATP6V1G1 (UniProt O75348)	0.295	0.563	0.473
DDX19A (UniProt Q9NUU7)	0.954	0.865	1.2
SLC7A2 (UniProt P52569)	0.647	0.412	-0.0842
PTGES2 (UniProt Q9H7Z7)	0.178	-0.199	0.0528
SLC43A3 (UniProt Q8NBI5)	0.807	0.34	0.53
CPPED1 (UniProt Q9BRF8)	0.792	-0.0195	0.348
UBR4 (UniProt Q5T4S7)	0.242	-0.162	-0.16
